Source: ChEMBL document CHEMBL1201862, “PubChem BioAssay data set” (2004)
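Tested at 5 concentrations; 48 h exposure; 96-well plates; endpoints linearly interpolated, else capped at highest concentration. Abbreviation: GI50, concentration required for 50% inhibition of growth.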 Active and inactive are the calls of the source. Rule as the data show it: active = GI50 up to about 1.1 µM and inactive = higher.

What was measured:
Experiment in all cases: NCI tumour cell line growth inhibition, 48 h
LOX IMVI = system: LOX IMVI
HOP-18 = system: HOP-18
NCI-H226 = system: NCI-H226
786-0 = system: 786-0
NCI-H522 = system: NCI-H522
SK-MEL-28 = system: SK-MEL-28
DLD-1 = system: DLD-1
MOLT-4 = system: MOLT-4
XF498 = system: XF498
HOP-92 = system: HOP-92
SNB-19 = system: SNB-19
HCT-116 = system: HCT-116
CAKI-1 = system: CAKI-1
RXF 393 = system: RXF 393
A549 = system: A549
UO-31 = system: UO-31
HCC 2998 = system: HCC 2998
TK-10 = system: TK-10
DMS-273 = system: DMS-273
M19-MEL = system: M19-MEL
KM-20L2 = system: KM-20L2
SK-MEL-5 = system: SK-MEL-5
OVCAR-4 = system: OVCAR-4
OVCAR-5 = system: OVCAR-5
UACC-257 = system: UACC-257
HL-60 = system: HL-60
ACHN = system: ACHN
A498 = system: A498
SF-539 = system: SF-539
RXF 631 = system: RXF 631
COLO 205 = system: COLO 205
SNB-75 = system: SNB-75
K562 = system: K562
SK-OV-3 = system: SK-OV-3
HOP-62 = system: HOP-62
SF-268 = system: SF-268
Malme-3M = system: Malme-3M
EKVX = system: EKVX
KM12 = system: KM12
OVCAR-3 = system: OVCAR-3
SNB-78 = system: SNB-78
NCI-H23 = system: NCI-H23
HCT-15 = system: HCT-15
SR = system: SR
DMS-114 = system: DMS-114
SN12C = system: SN12C
U-251 = system: U-251
SF-295 = system: SF-295
SK-MEL-2 = system: SK-MEL-2
M14 = system: M14
NCI-H460 = system: NCI-H460
SW-620 = system: SW-620
OVCAR-8 = system: OVCAR-8
CCRF-CEM = system: CCRF-CEM
RPMI-8226 = system: RPMI-8226
LXFL 529 = system: LXFL 529
UACC-62 = system: UACC-62
IGROV-1 = system: IGROV-1
HT-29 = system: HT-29

Compound: COc1cc(C2C(C(=O)Nc3ccc([N+](=O)[O-])cc3)=C(C)NC(C)=C2C(=O)Nc2ccc([N+](=O)[O-])cc2)ccc1O
- GI50 (LOX IMVI): 14.6 µM (inactive)
- GI50 (HOP-18): 27.6 µM (inactive)
- GI50 (NCI-H226): 24.2 µM (inactive)
- GI50 (786-0): 29.1 µM (inactive)
- GI50 (NCI-H522): 15.8 µM (inactive)
- GI50 (SK-MEL-28): 4.16 µM (inactive)
- GI50 (DLD-1): 25.6 µM (inactive)
- GI50 (MOLT-4): 19.9 µM (inactive)
- GI50 (XF498): 23.8 µM (inactive)
- GI50 (HOP-92): 16.4 µM (inactive)
- GI50 (SNB-19): 25.7 µM (inactive)
- GI50 (HCT-116): 16 µM (inactive)
- GI50 (CAKI-1): 31 µM (inactive)
- GI50 (RXF 393): 19.5 µM (inactive)
- GI50 (A549): 37.6 µM (inactive)
- GI50 (UO-31): 19.1 µM (inactive)
- GI50 (HCC 2998): 18.4 µM (inactive)
- GI50 (TK-10): 18.2 µM (inactive)
- GI50 (DMS-273): 21.9 µM (inactive)
- GI50 (M19-MEL): 19.3 µM (inactive)
- GI50 (KM-20L2): 18.5 µM (inactive)
- GI50 (SK-MEL-5): 31.8 µM (inactive)
- GI50 (OVCAR-4): 27 µM (inactive)
- GI50 (OVCAR-5): 35.6 µM (inactive)
- GI50 (UACC-257): 24.2 µM (inactive)
- GI50 (HL-60): 0.515 µM (active)
- GI50 (ACHN): 24.3 µM (inactive)
- GI50 (A498): 36.7 µM (inactive)
- GI50 (SF-539): 20.9 µM (inactive)
- GI50 (RXF 631): 32.5 µM (inactive)
- GI50 (COLO 205): 16.4 µM (inactive)
- GI50 (SNB-75): 30.5 µM (inactive)
- GI50 (K562): 13.5 µM (inactive)
- GI50 (SK-OV-3): 27.9 µM (inactive)
- GI50 (HOP-62): 18.4 µM (inactive)
- GI50 (SF-268): 23.2 µM (inactive)
- GI50 (Malme-3M): 20.8 µM (inactive)
- GI50 (EKVX): 39.1 µM (inactive)
- GI50 (KM12): 18.7 µM (inactive)
- GI50 (OVCAR-3): 22.7 µM (inactive)
- GI50 (SNB-78): 34.8 µM (inactive)
- GI50 (NCI-H23): 26.7 µM (inactive)
- GI50 (HCT-15): 19.1 µM
- GI50 (SR): 5.07 µM (inactive)
- GI50 (DMS-114): 24.1 µM (inactive)
- GI50 (SN12C): 18.4 µM (inactive)
- GI50 (U-251): 16.8 µM (inactive)
- GI50 (SF-295): 24.7 µM (inactive)
- GI50 (SK-MEL-2): 15.9 µM (inactive)
- GI50 (M14): 23.9 µM (inactive)
- GI50 (NCI-H460): 23.3 µM (inactive)
- GI50 (SW-620): 21.6 µM (inactive)
- GI50 (OVCAR-8): 19.9 µM (inactive)
- GI50 (CCRF-CEM): 30.3 µM (inactive)
- GI50 (RPMI-8226): 24.3 µM (inactive)
- GI50 (LXFL 529): 18.3 µM (inactive)
- GI50 (UACC-62): 16.7 µM (inactive)
- GI50 (IGROV-1): 24.9 µM (inactive)
- GI50 (HT-29): 19.4 µM (inactive)
